These results are taken from patent US20250170027A1, “COLLAGEN CROSS-LINKER AND USES THEREOF” (The Curators of the University of Missouri, priority 2022, published 2025).

In data set [1] the test system is Clostridium histolyticum collagenase. To be noted: after 1 hour incubation at 37° C.; 0.2 U/ml collagenase; EDTA 5 mM; FIG. 3.
Procedure: The direct inactivation of collagenase by TRI was also determined using a collagenase assay kit. Assays were performed in 96-well microplates with 0.2 U/ml Clostridium histolyticum collagenase incubated with the treatment solutions for up to 24 h according to the manufacturer's instructions. The well-known collagenase inhibitor 5 mM EDTA was used as a positive control. A group without any treatment was included as a negative control. The fluorescence of kinetic of inactivation was monitored at 1, 2, 4, 16 and 24 h of incubation at 37° C. in triplicate at 490 nm/520 nm. Fluorescence at the different time points was determined by subtracting background fluorescence. The collagenase activity was expressed in arbitrary fluorescence units. Then, the activity was calculated in percentage of inhibition according to the untreated negative control (presumed 100% collagenase activity) after 4 h of incubation. Statistical analysis was performed by one-way ANOVA and Games Howell's post hoc (α=0.05).
Data set [2] concerns L929 cells. As to the kind of experiment: Effect of direct treatment on cell proliferation (MTS assay). The class given is cell-based. As to conditions: treatment solutions diluted 1:1000, 1:2000, 1:4000 (v/v) in culture medium; FIG. 5. As for the experimental part: (§1) The cells were seeded onto 24 and 96-well plates at a density of 2×10^4 cells/cm^2 and incubated at 37° C. in 5% CO2 and 95% relative humidity until the monolayer cells spread over the bottom of the wells.
The direct treatments were conducted on 96-well plates with replacement of original culture medium with culture medium containing different diluted treatment solutions at ratios of 1:1000, 1:2000 and 1:4000 (v/v) and a control group containing only original culture medium. Cell proliferation was assessed with the MTS assay CellTiter 96 AQueous One Solution Cell Proliferation Assay following protocol guidelines specified by the manufacturer. Absorbance was measured using a multimode microplate reader at 460/30 nm at 2 h after addition of MTS reagent. Statistical analysis was performed using a two-way ANOVA for each used concentration followed by Tukey's post hoc (α=0.05).

Data set [3] concerns L929 cells. In kind it is cell-based. As to conditions: dentin disks treated 1 min; 1 or 3 days exposure; FIGS. 6, 7. On the procedure:
as §1
Twenty-four teeth were sectioned obtaining 24-dentin disks (approximately 6-mm in diameter). The dentin disks were superficially etched using 32% phosphoric acid gel for 15 s on each side, rinsed thoroughly and placed in 100 μL of treatment solutions. After 1 min of treatment, the treated dentin disks were rinsed in sterile distilled water for 30 s. Treated dentin disks were immediately placed on a permeable polycarbonate membrane insert (6.5 mm in diameter, 3.0 μm pore size) above of cultured cells and covered with 100 μL of medium. After incubation, cell viability assay was used to stain live cells with calcein-AM and dead cells with ethidium homodimer. To distinguish overlapped cells in cell counting, Hoechst 33342 was used as a cell-permeant nuclear counterstain, following the guidelines specified by the manufacturer. Cells were imaged using a fluorescent High Content Microscope with 20× magnification. Cell counting was performed using ImageJ (NIH Image J1.8.0). The percentage of cell proliferation and dead cells were statistically compared to 1-day control using one-way ANOVA and Dunnett's test (α=0.05).

For a further data set, the system named is dentin collagen. Description: Biodegradation of dentin collagen by exogenous collagenase (weight loss, HYP release). The class given is biochemical, human. To be noted: crosslinker 0.6 wt % in EtOH, 60 s or 1 h treatment; 0.1% collagenase 1 h at 37° C.; FIG. 2A. On the procedure:
Following the treatment and rinse, the dentin collagen films were dried (48 h under vacuum) and then exposed to 0.1% collagenase (type I, from Clostridium histolyticum, ≥125 U/mg) degradation for 1 h at 37° C. (n=6×10 films per group). The remnant films were dried as previously described and compared the weight percent before and after collagenase digestion for weight loss analysis (WL). The digestion solution was collected and processed to quantify the amount of HYP released. This processing comprised exposure to 5% Ehrlich's reagent, which binds to HYP and produces a colored solution, the color intensity of which is proportional to the concentration of HYP. Colorimetry was performed by measuring the absorbance at 555 nm in a microplate reader, thereby calculating the HYP μg/mg of collagen during digestion. […] All data for weight loss are separately shown after […] for each sample.

A further data set concerns mammalian collagen. As to the kind of experiment: Application of crosslinkers to mammalian collagen (biostability, general statement). As to conditions: application of any one of the crosslinkers to mammalian collagen.

`O=C(O)CN(CCN(CC(=O)O)CC(=O)O)CC(=O)O` [EDTA, ethylenediaminetetraacetic acid]: the collagenase inhibition result in data set [1] is reported as “some collagenase inhibition”.
As for `O=CCCCC=O` [GA, glutaraldehyde], the “cell proliferation (MTS absorbance) compared to the control sample” value with L929 cells [2] was “high cytotoxicity”. Further, the “cytotoxic effect on L929 cells” value in the data set on L929 cells [3] is “cytotoxic”.
As for `COC(=O)C1=CO[C@@H](O)[C@@H]2C(CO)=CC[C@H]12` [GEN, genipin], the “weight % change (weight loss) before and after collagenase digestion” value in the data set with dentin collagen was “not faring much better”.
On the same count and under the same terms, the same measure for `O=c1c(O)c(-c2ccc(O)c(O)c2)oc2cc(O)cc(O)c12` [QC, quercetin]: “not faring much better”.
In the case of `O=C(NCCc1ccc(O)c(O)c1)c1cc(C(=O)NCCc2ccc(O)c(O)c2)cc(C(=O)NCCc2ccc(O)c(O)c2)c1` [TRI-1], the “biostability of mammalian collagen” value with mammalian collagen was “improves the biostability”.
On the same count and under the same terms, next, `O=C(O)c1cc(C(=O)NCCc2ccc(O)c(O)c2)cc(C(=O)NCCc2ccc(O)c(O)c2)c1` [TRI-2]: “improves the biostability”; `CCOC(=O)c1cc(C(=O)NCCc2ccc(O)c(O)c2)cc(C(=O)NCCc2ccc(O)c(O)c2)c1` [TRI-3]: “improves the biostability”.
